Melting point, IC50 and EC50 data for 26 compounds are collected here from paper PMC6366404, “4-(3-Nitrophenyl)thiazol-2-ylhydrazone derivatives as antioxidants and selective hMAO-B inhibitors: synthesis, biological activity and computational analysis” (Journal of Enzyme Inhibition and Medicinal Chemistry, 2019).

Series [1] is described as follows: DPPH radical scavenging activity. The protocol:
The radical scavenging effect of the compounds using the 1,1-diphenyl-2-picrylhydrazyl (DPPH) radical was estimated according to Zengin et al.[36]. The sample solution (1 ml) was added to 4 ml of a 0.004% solution of DPPH in methanol. The sample absorbance was recorded at 517 nm after 30 min incubation at room temperature in the dark.
(§1) The scavenging activity of the compounds on the ABTS radical cation [ABTS,2,2′-azino-bis(3-ethylbenzothiazoline)-6-sulphonic acid] was measured according to the method of Zengin et al.[37] with slight modification. Briefly, ABTS^+ was produced directly by reacting a 7 mM ABTS solution with 2.45 mM potassium persulphate and allowing the mixture to incubate for 12–16 h in the dark at room temperature. Prior to initiating the assay, the ABTS solution was diluted with methanol to an absorbance of 0.700 ± 0.02 at 734 nm. The sample solution (1 ml) was added to the ABTS^+ solution (2 ml) and mixed, and the sample absorbance was recorded at 734 nm after 30 min incubation at room temperature. The corresponding IC50 value, which is the effective concentration at which 50% of DPPH/ABTS radicals are scavenged, was calculated for each compound and trolox, as a reference drug.

Series [2] can be described thus: ABTS radical cation scavenging activity. On the procedure: as §1
Series [3] in a line: Metal chelating activity on ferrous ions. Particulars: ferrozine. The protocol: Metal chelating activity on ferrous ions was evaluated by the method previously described. Briefly, the sample solution (2 ml) was added to FeCl2 solution (0.05 ml, 2 mM). The reaction was initiated by the addition of 5 mM ferrozine (0.2 ml). Similarly, a blank was prepared by adding the sample solution (2 ml) to FeCl2 solution (0.05 ml, 2 mM) and water (0.2 ml) without ferrozine. Then, the sample and blank absorbance were recorded at 562 nm after incubation for 10 min at room temperature. The absorbance of the blank was subtracted from that of the sample. EDTA was used as a positive control and this property was expressed as IC50 value for each compound.

Series [4] can be described thus: Cupric ion reducing activity (CUPRAC). The protocol: The cupric ion reducing activity (CUPRAC) was determined according to the method of Zengin et al.[38]. The sample solution (0.5 ml) was added to a premixed reaction mixture containing CuCl2 (1 ml, 10 mM), neocuproine (1 ml, 7.5 mM), and NH4Ac buffer (1 ml, 1 M, pH 7.0). Similarly, a blank was prepared by adding the sample solution (0.5 ml) to a premixed reaction mixture (3 ml) without CuCl2. The absorbances of the sample and blank were subsequently recorded at 450 nm after 30 min incubation at room temperature. The absorbance of the blank was subtracted from that of the sample.
(§2) The FRAP (ferric reducing antioxidant power) assay was carried out as described by Zengin et al.[38]. The sample solution (0.1 ml) was added to the premixed FRAP reagent (2 ml) containing acetate buffer (0.3 M, pH 3.6), 2,4,6-tris(2-pyridyl)-s-triazine (10 mM) in 40 mM HCl, and ferric chloride (20 mM) in a ratio of 10/1/1 (v/v/v). The absorbance of the sample was subsequently recorded at 593 nm after 30 min incubation at room temperature. Both results were expressed as EC50 values, using trolox as a reference drug.

Series [5] is described as follows: FRAP (ferric reducing antioxidant power) assay. The protocol: as §2
The nature of series [6]: Phosphomolybdenum assay (PhosphoMo), total antioxidant activity. To be noted: concentration at which absorbance was 0.5. The protocol: The total antioxidant activity of the compounds was evaluated by phosphomolybdenum method according to Zengin et al.[35]. The sample solution (0.3 ml) was combined with 3 ml of reagent solution (0.6 M sulphuric acid, 28 mM sodium phosphate, and 4 mM ammonium molybdate) and the absorbance was recorded at 695 nm after 90 min incubation at 95 °C. The EC50, which is the effective concentration at which the absorbance was 0.5, was calculated for each compound and trolox, as a reference drug.

The structures appear in SMILES notation. Bounds are passed on as bounds.

By melting point is commonly meant the temperature of the solid-liquid transition. In turn, `CCC(=NNc1nc(-c2cccc([N+](=O)[O-])c2)cs1)c1ccccc1` had a melting point of 215 to 217 °C.

As to `CC(=NNc1nc(-c2cccc([N+](=O)[O-])c2)cs1)c1cccc([N+](=O)[O-])c1`, the melting point fell in the range of 214 to 216 °C.

`CC(=NNc1nc(-c2cccc([N+](=O)[O-])c2)cs1)c1ccc([N+](=O)[O-])cc1` had a melting point of 258 to 260 °C.

`O=[N+]([O-])c1cccc(-c2csc(NN=Cc3c[nH]c4ccccc34)n2)c1` gave a melting point of 253 to 255 °C.

Compound `CC(=NNc1nc(-c2cccc([N+](=O)[O-])c2)cs1)c1c[nH]c2ccccc12` gave a melting point of 209 to 211 °C.

In turn, `O=[N+]([O-])c1cccc(-c2csc(NN=Cc3ccc4c(c3)OCO4)n2)c1` registered a melting point of 255 to 256 °C.

On to `CC(=NNc1nc(-c2cccc([N+](=O)[O-])c2)cs1)c1cc2ccccc2o1`, for which the melting point fell in the range of 228 to 230 °C.

In the case of `CC(=NNc1nc(-c2cccc([N+](=O)[O-])c2)cs1)c1ccc2c(c1)OCCO2`, the melting point lay in the range of 242 to 244 °C.

Consider `CC(=NNc1nc(-c2cccc([N+](=O)[O-])c2)cs1)c1ccc2ccccc2c1`, for which the melting point was in the range of 152 to 154 °C.

On to `O=[N+]([O-])c1cccc(-c2csc(NN=C(c3ccccc3)c3ccccc3)n2)c1`, for which the melting point fell in the range of 166 to 168 °C.

Compound `CC(=NNc1nc(-c2cccc([N+](=O)[O-])c2)cs1)c1cc2ccccc2oc1=O` returned a melting point of 183 to 185 °C.

Compound `CC(=NNc1nc(-c2cccc([N+](=O)[O-])c2)cs1)c1ccc(C(C)=NNc2nc(-c3cccc([N+](=O)[O-])c3)cs2)cc1` came in with a melting point of 283 to 285 °C.

For the compound `O=[N+]([O-])c1cccc(C=NNc2nc(-c3cccc([N+](=O)[O-])c3)cs2)c1`, the melting point was in the range of 222 to 224 °C.

What is called IC50 is the concentration that inhibits the measured activity by half. By EC50 is commonly meant the concentration that produces a half-maximal response. A high value points to a less potent agent. Take `CC(=NNc1nc(-c2cccc([N+](=O)[O-])c2)cs1)c1ccc(Cl)s1` [Compound 6, 1-(1-(5-Chlorothiophen-2-yl)ethylidene)-2-(4-(3-nitrophenyl)thiazol-2-yl)hydrazine]: the melting point lay within 227 to 229 °C. The IC50 in series [1] was 1.18 ± 0.01 mM. Also, the IC50 in series [2] was determined as 1.08 ± 0.01 mM. The IC50 in series [3] was greater than 5 mM. In series [4], this compound had an EC50 of 0.49 ± 0.01 mM. In addition, a half-maximal effect in series [5] (EC50) was put at 0.62 ± 0.07 mM. Also, the EC50 in series [6] worked out at 1.25 ± 0.05 mM.

Consider `O=[N+]([O-])c1cccc(-c2csc(NN=Cc3ccccc3)n2)c1` [Compound 7, 1-Benzylidene-2-(4-(3-nitrophenyl)thiazol-2-yl)hydrazine], for which the melting point was in the range of 193 to 195 °C. The IC50 in series [1] amounted to 1.38 ± 0.01 mM. Moreover, the IC50 in series [2] turned out to be 1.04 ± 0.01 mM. In series [3], this compound had an IC50 greater than 5 mM. This compound came in with an EC50 in series [4] of 0.66 ± 0.01 mM. This compound also showed an EC50 in series [5] of 0.66 ± 0.04 mM. The same compound gave an EC50 in series [6] of 1.29 ± 0.16 mM.

Turning to `O=[N+]([O-])c1cccc(-c2csc(NN=Cc3ccccc3[N+](=O)[O-])n2)c1` [Compound 8, 1-(2-Nitrobenzylidene)-2-(4-(3-nitrophenyl)thiazol-2-yl)hydrazine], the melting point was 228 to 230 °C. This compound showed an IC50 in series [1] of 1.47 ± 0.01 mM. The compound further displayed an IC50 in series [2] of 1.04 ± 0.01 mM. The IC50 in series [3] was greater than 5 mM. The compound also yielded an EC50 in series [4] of 0.44 ± 0.02 mM. The 50% effective concentration (EC50) in series [5] was determined as 0.47 ± 0.04 mM. It took 1.7 ± 0.05 mM to reach a half-maximal effect in series [6] (EC50).

Turning to `O=[N+]([O-])c1cccc(-c2csc(NN=Cc3ccccn3)n2)c1` [Compound 16, 1-(4-(3-Nitrophenyl)thiazol-2-yl)-2-(pyridin-2-ylmethylene)hydrazine], the IC50 in series [1] was 1.32 ± 0.01 mM; in series [2] it was 1.06 ± 0.02 mM; in series [3], greater than 5 mM. The EC50 in series [4] stood at 0.53 ± 0.02 mM; in series [5], 0.51 ± 0.02 mM; in series [6], 1.13 ± 0.01 mM.

Consider `O=[N+]([O-])c1cccc(-c2csc(NN=Cc3ccncc3)n2)c1` [Compound 18, 1-(4-(3-Nitrophenyl)thiazol-2-yl)-2-(pyridin-4-ylmethylene)hydrazine], for which the IC50 in series [1] is 1.37 ± 0.01 mM; in series [2] it was 1.04 ± 0.01 mM; in series [3] it was greater than 5 mM. Moreover, the EC50 in series [4] is 0.58 ± 0.01 mM; in series [5], 0.35 ± 0.01 mM; in series [6], 4.7 ± 0.97 mM.

For the compound `CC(=NNc1nc(-c2cccc([N+](=O)[O-])c2)cs1)c1ccccn1` [Compound 19, 1-(4-(3-Nitrophenyl)thiazol-2-yl)-2-(1-(pyridin-2-yl)ethylidene)hydrazine], the IC50 in series [1] is 1.36 ± 0.01 mM; in series [2], 1.04 ± 0.01 mM; in series [3], greater than 5 mM. Moreover, the EC50 in series [4] amounted to 0.51 ± 0.01 mM; in series [5], 0.38 ± 0.02 mM; in series [6] it was 2.64 ± 0.34 mM.

As to `CC(=NNc1nc(-c2cccc([N+](=O)[O-])c2)cs1)c1cccnc1` [Compound 20, 1-(4-(3-Nitrophenyl)thiazol-2-yl)-2-(1-(pyridin-3-yl)ethylidene)hydrazine], the values for the IC50 in series [1], in series [2] and in series [3] were 1.29 ± 0.01 mM, 1.04 ± 0.01 mM and greater than 5 mM, respectively. The EC50 in series [4] was 0.42 ± 0.02 mM; in series [5], 0.32 ± 0.02 mM; in series [6], 1.77 ± 0.07 mM.

Turning to `CC(=NNc1nc(-c2cccc([N+](=O)[O-])c2)cs1)c1ccncc1` [Compound 21, 1-(4-(3-Nitrophenyl)thiazol-2-yl)-2-(1-(pyridin-4-yl)ethylidene)hydrazine], the values for the IC50 in series [1], in series [2] and in series [3] were 1.34 ± 0.02 mM, 1.04 ± 0.01 mM and greater than 5 mM, respectively. Also, the results for the EC50 in series [4], in series [5] and in series [6] were 0.46 ± 0.02 mM, 0.27 ± 0.01 mM and 4.48 ± 0.18 mM, respectively.

Turning to `CC(=NNc1nc(-c2cccc([N+](=O)[O-])c2)cs1)c1cnccn1` [Compound 22, 1-(4-(3-Nitrophenyl)thiazol-2-yl)-2-(1-(pyrazin-2-yl)ethylidene)hydrazine], the melting point was in the range of 243 to 245 °C. In addition, the IC50 in series [1] is 1.34 ± 0.01 mM. The compound also came in with an IC50 in series [2] of 1.04 ± 0.01 mM. Further, it took 3.86 ± 0.29 mM to reach half-maximal inhibition in series [3] (IC50). In addition, the EC50 in series [4] amounted to 0.91 ± 0.02 mM. Also, the EC50 in series [5] was 0.48 ± 0.04 mM. In series [6], this compound registered an EC50 of 1.28 ± 0.03 mM.

The compound `O=[N+]([O-])c1cccc(-c2csc(NN=Cc3cccc4ccccc34)n2)c1` [Compound 28, 1-(Naphthalen-1-ylmethylene)-2-(4-(3-nitrophenyl)thiazol-2-yl)hydrazine] came in with a melting point of 212 to 214 °C. Further, the IC50 in series [1] was 1.3 ± 0.01 mM. For the same compound, the IC50 in series [2] was found to be 1.05 ± 0.01 mM. The compound further returned an IC50 in series [3] greater than 5 mM. In addition, in series [4], the concentration for a half-maximal effect (EC50) was 0.51 ± 0.03 mM. Besides, it took 0.41 ± 0.01 mM to reach a half-maximal effect in series [5] (EC50). For the same compound, the EC50 in series [6] was determined as 4.93 ± 0.83 mM.

`CC(=NNc1nc(-c2cccc([N+](=O)[O-])c2)cs1)c1cccc2ccccc12` [Compound 29, 1-(1-(Naphthalen-1-yl)ethylidene)-2-(4-(3-nitrophenyl)thiazol-2-yl)hydrazine]: the melting point was 226 to 228 °C. In series [1], this compound showed an IC50 of 1.42 ± 0.01 mM. The compound further displayed an IC50 in series [2] of 1.04 ± 0.01 mM. Also, the IC50 in series [3] was greater than 5 mM. Moreover, the response in series [4] was half-maximal at 0.46 ± 0.01 mM (EC50). In series [5], this compound came in with an EC50 of 0.53 ± 0.02 mM. This compound gave an EC50 in series [6] of 9.39 ± 0.31 mM.

Take `O=C(O)CN(CCN(CC(=O)O)CC(=O)O)CC(=O)O` [EDTA, reference compound]: the IC50 in series [3] is 0.02 ± 0.001 mM.

Turning to `Cc1c(C)c2c(c(C)c1O)CCC(C)(C(=O)O)O2` (stereo not shown) [Trolox, trolox, reference compound], the figures for the IC50 in series [1] and in series [2] were 0.4 ± 0.01 mM and 0.66 ± 0.02 mM, respectively. Also, the EC50 worked out at 0.24 ± 0.02 mM in series [4], 0.16 ± 0.01 mM in series [5] and 1.13 ± 0.05 mM in series [6].
